From patent publication US20250236617A1, “BICYCLIC TETRAHYDROTHIAZEPINE DERIVATIVES” (Hoffmann-La Roche Inc., priority 2022, published 2025) come the findings set out here.

In general, IC50 refers to the concentration that gives 50% inhibition. Higher therefore signals a need for much substance.

The subject of test [1] is primary human T-cells. In words: IL2 secretion measurements in CD3-stimulated T-cells. The format is cell-based. The settings on record: CD3 condition; for Emax IL2 (% activation): 24 hours, 20 μM reference compound A1 = 100%; for EC50: IL2 secretion after 24 hours, read-out: Tcell IL2 CD3 EC50. On the procedure: As readouts for T-cell activation, 1L2 secretion after 24 hours and proliferation after 5 days was measured. Increases in 1L2 secretion and proliferation upon compound treatment were assessed as the % of the maximum of reference compound A1. WO 2016/139181 discloses reference compound A1 as example 70. As a counter screen and to make sure that no unwanted TCR-independent activation was triggered, PBS conditions were run for all compounds.
Expanded primary human T-cells were thawed and cultured in RPMI 1640 (Gibco, #61870-010)+5% human serum (HS, Sigma, #H3667)+1 mM Sodium Pyruvate (Gibco, #11360-039)+50 μM 2-mercaptoethanol (Gibco, #31350-010) and 1× Pen-Strep (Life Technologies, #15140122) medium at density of 2 Mio/ml for 3 hours in 5% CO2, 37° C. and 95% humidity. For coating of plates, […] or PBS++ with CD3 antibody (concentration depending on donor and determined by CD3 titrations) was added 100 μl/well to Poly-D Lysine coated 96-well plates. Plates were sealed and incubated at room temperature for 3 hours on a table-top rocking platform. After incubation, plates were washed once with PBS−− and filled with 40 μl/well culture medium only. Compounds were then added (see next section) to medium only plates. After 3 hours of culturing the T-cells, cells were filtered through a cell strainer (Miltenyi Biotech, #130-041-407), counted again and concentration was adjusted to 1.25 Mio/ml.
Cells were then seeded 80 μl/well to the 40 μl/well including dispensed compounds according to plate layout. By adding cells, compounds were further diluted 1:3, and resulting in 100 k cells/120 μl/well. After 24 hours 40 μl of supernatant was collected carefully from the top while not disturbing the cells and transferred into a round bottom 96 well plate. Collected and frozen supernatant was used for detection of IL2 using the IL-2 Human ProQuantum Immunoassay Kit (Invitrogen) or using the Human IL-2 ELISA Kit (Thermo Fisher).
Compounds were added in a 5 or 6 pt dose response with the Tecan D300e Digital Dispenser, all conditions 3 times more concentrated than the end-concentration, since cells are added afterwards (80 μl cells to 40 μl prepared medium with treatment). The DR was starting at 20 μM or 10 μM final top concentration and a dilution factor of 3.333. The positive control was the reference compound A1 that was added in a dose response as well, additionally to 3 wells of only 20 μM representing the positive stimulator control. All wells were normalized with DMSO to a final concentration of 0.6% (0.2% end-concentration).
The immunoassay is done following the manufacturer's manual (Invitrogen, #A35603). Additional information: For the immunoassay, MicroAmp™ EnduraPlate™ Optical 384-Well plates are used. Frozen supernatant is thawed and centrifuged for 5 minutes at 1000×g, both steps at 4° C. After centrifugation, required sample amount is taken from the top, and in a separate LightCycler V-bottom plate (working plate) diluted with assay dilution buffer, dilution factor depending on the PBS or CD3 condition but at least 1:3. IL-2 standard and blanks are prepared in the same V-bottom plate, standard with a range of […] (extended version). After preparation, 5 μl of sample dilutions or standard/blanks are transferred to the optical 384-well plate (assay plate) and the 10 μl reaction protocol is being followed. For measurement, the QuantStudio 12K Flex system is used. Raw data is extracted and IL-2 concentrations are calculated with the Thermo Fisher online app (apps.thermofisher.com/apps/proquantum).
ELISA is done following the manufacturer's manual (Thermo Fisher Scientific, #88-7025-88). Additional information: For the ELISA Nunc MaxiSorp 96 well plates are used. Frozen supernatant is thawed and centrifuged for 5 minutes at 1000×g, both steps at 4° C. […]

In test [2] the test system is primary human T-cells. Briefly: T-cell proliferation assay (CellTiter-Glo). It counts as cell-based. The note with it: CD3 condition; for EC50: proliferation after 5 days, CellTiter-Glo, read-out: Tcell Proliferation CD3 EC50; for Emax proliferation (% activation): 5 days, 20 μM reference compound A1 = 100%. How it is done:
For coating of plates, PBS++ only or PBS++ with CD3 antibody (concentration depending on donor and determined by CD3 titrations) is added 100 μl/well to Poly-D Lysine coated 96-well plates. Plates are sealed and incubated at room temperature for 3 hours on a table-top rocking platform. After incubation, plates are washed once with PBS−− and filled with 40 μl/well culture medium only. Compounds are then added (see next section) to medium only plates. After 3 hours of culturing the T-cells, cells are filtered through a cell strainer (Miltenyi Biotech, #130-041-407), counted again and concentration is adjusted to 1.25 Mio/ml.
Cells are then seeded 80 μl/well to the 40 μl/well including dispensed compounds according to plate layout. By adding cells, compounds are further diluted 1:3, and resulting in 100 k cells/120 μl/well. After 48 hours 40 μl of supernatant is collected carefully from the top while not disturbing the cells. Cells are assessed for proliferation 5 days later by measuring […] using CellTiterGlo (Promega).
Compounds were added in a 5 or 6 pt dose response with the Tecan D300e Digital Dispenser, all conditions 3 times more concentrated than the end-concentration, since cells are added afterwards (80 μl cells to 40 μl prepared medium with treatment). […] The positive control was the reference compound A1 that was added in a dose response as well, additionally to 3 wells of only 20 μM representing the positive stimulator control. All wells were normalized with DMSO to a final concentration of 0.6% (0.2% end-concentration).
After 5 days, for detection of ATP which is directly proportional to the number of cells present per well, the CellTiter-Glo® 2.0 Reagent is used. After visual control for toxicity or precipitations of the tested compounds, the plates are equilibrated to room temperature for 45 minutes. CellTiter-Glo® 2.0 Reagent is equilibrated to room temperature as well. After equilibration, an equal amount of CellTiter-Glo reagent is added to the cells (80 μl/well) with an electronic multichannel pipette. Plates are placed on a rocking platform for 15 minutes at room temperature. After incubation, the bottom of the plates is sealed with backing tape. Luminescence is measured with PHERAstar FSX (interval time 0.5 sec, gain 3000, focal height 15 mm) and exported as CSV file for analysis in Genedata screener.
Calculations and Data Reporting CD3 and PBS plates were analysed separately in Genedata Screener using Roche Normalization PCT_POS_CTRL with DMSO set as Neutral Control and 20 μM of the reference compound A1 set as Stimulator Control/100%.
For CD3 conditions EC50 and Emax of the fitted sigmoidal curve were reported. If no curve could be fitted, the EC50 was reported as blank field and the Emax was based on individual data points. […] Compounds which activate unstimulated cells (see IL2 measurements) or compounds which negatively affected viability were flagged.
For orientation: Cellular ATP, detected with luciferase, serves as a proxy for viable cell number.

The target in test [3] is DGKalpha (hDGKalpha(1-735)-N-His) (Homo sapiens (Human), UniProt P23743). In words: In vitro DGK inhibition assay, ADP-Glo (in house), DGKalpha. The settings on record: DLG liposomes, 25 μM ATP, 4 nM enzyme, 1 hour reaction. The format is biochemical. On the procedure: (§1) DGK α and ζ kinases use ATP to phosphorylate the substrate 1,2-dilauroyl-sn-glycerol (DLG, incorporated in the liposomes). ATP is converted to ADP as a result of this enzymatic reaction.
Sequence of DGKalpha (hDGKalpha(1-735)-N-His) (P23743 whole entry): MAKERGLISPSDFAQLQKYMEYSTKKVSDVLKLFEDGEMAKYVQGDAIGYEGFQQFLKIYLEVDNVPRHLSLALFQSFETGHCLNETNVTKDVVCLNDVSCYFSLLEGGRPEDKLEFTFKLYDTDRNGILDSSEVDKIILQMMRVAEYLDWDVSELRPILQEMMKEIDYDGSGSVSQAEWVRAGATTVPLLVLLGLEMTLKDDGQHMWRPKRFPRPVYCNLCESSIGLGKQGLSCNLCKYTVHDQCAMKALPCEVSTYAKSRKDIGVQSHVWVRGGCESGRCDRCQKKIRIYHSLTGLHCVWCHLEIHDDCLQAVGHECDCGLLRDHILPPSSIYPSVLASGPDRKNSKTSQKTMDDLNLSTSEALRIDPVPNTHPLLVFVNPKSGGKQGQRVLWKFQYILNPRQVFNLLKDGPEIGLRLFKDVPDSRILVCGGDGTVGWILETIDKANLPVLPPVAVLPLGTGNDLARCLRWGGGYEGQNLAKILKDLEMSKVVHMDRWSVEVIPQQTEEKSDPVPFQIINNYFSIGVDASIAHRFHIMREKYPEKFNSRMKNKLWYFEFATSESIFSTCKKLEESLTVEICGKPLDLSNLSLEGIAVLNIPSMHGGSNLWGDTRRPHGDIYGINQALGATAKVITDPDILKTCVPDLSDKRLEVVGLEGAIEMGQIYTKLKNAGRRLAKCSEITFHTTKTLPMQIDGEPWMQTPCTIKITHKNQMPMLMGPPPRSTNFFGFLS
(§2) After the kinase reaction, an ATP-depletion reagent is added to terminate the kinase reaction and deplete any remaining ATP, leaving only ADP. Second, a detection reagent is added to simultaneously convert ADP to ATP and allow the newly synthesized ATP to be converted to light using a coupled luciferase/luciferin reaction.
(§3) Purification of both enzymes was performed as previously described by Takahashi et al., PeerJ, 2018 (Takahashi, D.; Sakane, F. Expression and purification of human diacylglycerol kinase alpha from baculovirus-infected insect cells for structural studies. PeerJ 2018, 6, No. e5449).
(§4) A concentrated liposome solution was prepared in assay buffer without DTT and BSA: 2 mM of DLG in 21 mM of total liposome (2 mM DLG/8 mM PS/11 mM PC). The reaction mixtures contain the assay buffer with a final DLG concentration of 125 uM ATP concentrations of 25 μM (for DGKA assay) or 50 μM (for DGKZ assay). The reactions were started by addition of DGK α and ζ kinases at 4 nM and 2 nM final concentrations, respectively. After 1 hour reaction, the amount of ADP formed was detected with the ADP-Glo kinase assay (Promega) according to the manufacturer instructions. Compounds were added in 11-points dose response, starting at […], 1:3 dilutions, with a final DMSO concentration of 2%. The multidrop combi was used as a liquid handler and luminescence was read with 0.5 s by the envision reader (PE).

For test [4], the target named is DGKzeta (hDGKzeta(1-928)-N-His) (Homo sapiens (Human), UniProt Q13574). Briefly: In vitro DGK inhibition assay, ADP-Glo (in house), DGKzeta. The note with it: DLG liposomes, 50 μM ATP, 2 nM enzyme, 1 hour reaction. It counts as biochemical. How it is done: as §1, §2, §3, §4
Sequence of DGKzeta (hDGKzeta(1-928)-N-His) (Q13574 whole entry): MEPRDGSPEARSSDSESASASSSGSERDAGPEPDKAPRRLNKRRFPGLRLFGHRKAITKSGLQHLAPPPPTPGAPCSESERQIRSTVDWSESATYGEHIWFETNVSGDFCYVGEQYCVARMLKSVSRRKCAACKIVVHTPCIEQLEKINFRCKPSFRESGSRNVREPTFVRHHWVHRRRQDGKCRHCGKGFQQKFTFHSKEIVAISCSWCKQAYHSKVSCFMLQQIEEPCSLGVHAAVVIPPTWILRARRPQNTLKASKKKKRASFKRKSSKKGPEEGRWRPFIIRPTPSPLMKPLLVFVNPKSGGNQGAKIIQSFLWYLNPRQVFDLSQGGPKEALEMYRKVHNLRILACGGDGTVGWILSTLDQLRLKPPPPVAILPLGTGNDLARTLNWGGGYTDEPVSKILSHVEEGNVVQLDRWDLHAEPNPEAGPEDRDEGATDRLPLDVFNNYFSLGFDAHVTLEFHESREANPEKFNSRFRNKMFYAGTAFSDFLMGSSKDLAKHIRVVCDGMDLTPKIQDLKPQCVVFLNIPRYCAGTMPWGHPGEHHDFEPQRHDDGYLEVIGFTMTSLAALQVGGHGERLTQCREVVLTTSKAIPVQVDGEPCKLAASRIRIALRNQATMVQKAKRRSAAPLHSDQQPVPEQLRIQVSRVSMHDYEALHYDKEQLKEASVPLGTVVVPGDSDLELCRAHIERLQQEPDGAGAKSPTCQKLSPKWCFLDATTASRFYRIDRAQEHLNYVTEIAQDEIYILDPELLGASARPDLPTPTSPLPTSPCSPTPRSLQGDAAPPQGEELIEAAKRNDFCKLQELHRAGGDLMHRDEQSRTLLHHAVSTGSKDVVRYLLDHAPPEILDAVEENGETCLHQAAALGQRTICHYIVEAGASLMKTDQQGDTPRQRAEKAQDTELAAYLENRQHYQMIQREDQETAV
Background: ADP-Glo first removes unused ATP, then detects ADP through luciferase.

Take `CCN(CC)c1cnnc(-c2cc3c(cc2F)S(=O)(=O)C[C@H](N)C(=O)N3Cc2ccc(Cl)cc2)n1` [Example 15, (3R)-3-amino-5-[(4-chlorophenyl)methyl]-7-[5-(diethylamino)-1,2,4-triazin-3-yl]-8-fluoro-1,1-dioxo-2,3-dihydro-1λ6,5-benzothiazepin-4-one]: the “Emax IL2 (% activation)” value in the test on primary human T-cells [1] came out at 79 % activation. For the same molecule, the EC50 came out at 1650 nM with primary human T-cells [1] (Homo sapiens, T-cell) and 1710 nM in the test on primary human T-cells [2] (Homo sapiens, T-cell, 120 h).

As to `Cc1ncc(-c2cc3c(cc2F)S(=O)(=O)C[C@H](N)C(=O)N3Cc2ccc(Cl)cc2)cc1C(C)(C)C` [Example 16, (3R)-3-amino-7-(5-tert-butyl-6-methyl-3-pyridyl)-5-[(4-chlorophenyl)methyl]-8-fluoro-1,1-dioxo-2,3-dihydro-1λ6,5-benzothiazepin-4-one], the “Emax IL2 (% activation)” value with primary human T-cells [1] amounted to 87 % activation. For the same molecule, the EC50 in the test on primary human T-cells [1] (Homo sapiens, T-cell) was determined as 1110 nM; with primary human T-cells [2] (Homo sapiens, T-cell, 120 h) it was 36 nM.

With `N[C@H]1CS(=O)(=O)c2cc(F)c(-c3nncc(N4CCC(F)(F)CC4)n3)cc2N(Cc2ccc(Cl)cc2)C1=O` [Example 17, (3R)-3-amino-5-[(4-chlorophenyl)methyl]-7-[5-(4,4-difluoro-1-piperidyl)-1,2,4-triazin-3-yl]-8-fluoro-1,1-dioxo-2,3-dihydro-1λ6,5-benzothiazepin-4-one], the IC50 in test [3] stood at 7880 nM; in test [4] it was 650 nM. The “Emax IL2 (% activation)” value in the test with primary human T-cells [1] is 62 % activation. The EC50 in the test with primary human T-cells [1] (Homo sapiens, T-cell) was determined as 449 nM; with primary human T-cells [2] (Homo sapiens, T-cell, 120 h), 342 nM. Further, the “Emax proliferation (% activation)” value in the test with primary human T-cells [2] was 104 % activation.

Consider `CS(=O)(=O)C1(c2cnnc(-c3cc4c(cc3F)S(=O)(=O)C[C@H](N)C(=O)N4Cc3ccc(Cl)cc3)n2)CC1` [Example 19, (3R)-3-amino-5-[(4-chlorophenyl)methyl]-8-fluoro-7-[5-(1-methylsulfonylcyclopropyl)-1,2,4-triazin-3-yl]-1,1-dioxo-2,3-dihydro-1λ6,5-benzothiazepin-4-one], for which the “Emax IL2 (% activation)” value with primary human T-cells [1] is recorded as 45 % activation. For the same molecule, the EC50 was 5710 nM in the test on primary human T-cells [1] (Homo sapiens, T-cell) and 2090 nM in the test on primary human T-cells [2] (Homo sapiens, T-cell, 120 h).

As for `CC(C)(C)c1cncc(-c2cc3c(cc2F)S(=O)(=O)C[C@H](N)C(=O)N3Cc2ccc(-c3noc(C(F)(F)F)n3)cc2)c1` [Example 22, (3R)-3-amino-7-(5-tert-butyl-3-pyridyl)-8-fluoro-1,1-diketo-5-[4-[5-(trifluoromethyl)-1,2,4-oxadiazol-3-yl]benzyl]-2,3-dihydro-1λ6,5-benzothiazepin-4-one], the “Emax IL2 (% activation)” value in the test on primary human T-cells [1] was 458 % activation. For the same molecule, the EC50 was found to be 811 nM with primary human T-cells [1] (Homo sapiens, T-cell) and 92 nM with primary human T-cells [2] (Homo sapiens, T-cell, 120 h). Also, in the test with primary human T-cells [2], the “Emax proliferation (% activation)” value is recorded as 228 % activation.

Turning to `COc1cncc(-c2cc3c(cc2F)S(=O)(=O)C[C@H](N)C(=O)N3Cc2ccc(Cl)cc2)c1` [Example 26, (3R)-3-amino-5-[(4-chlorophenyl)methyl]-8-fluoro-7-(5-methoxy-3-pyridyl)-1,1-dioxo-2,3-dihydro-1λ6,5-benzothiazepin-4-one], in the test with primary human T-cells [1], the “Emax IL2 (% activation)” value was 29 % activation. Further, the EC50 in the test with primary human T-cells [1] (Homo sapiens, T-cell) was above 10000 nM; in the test with primary human T-cells [2] (Homo sapiens, T-cell, 120 h), 416 nM.

As to “(3R)-3-amino-5-(4-chlorobenzyl)-8-fluoro-1,1-diketo-7-[5-(trifluoromethoxy)-3-pyridyl]-2,3-dihydro-1λ6,5-benzothiazepin-4-one [Example 5]”, the IC50 in test [3] was above 62500 nM. Moreover, in the test with primary human T-cells [1], the “Emax IL2 (% activation)” value amounted to 100 % activation and the EC50 was determined as 604 nM. Moreover, the EC50 in the test on primary human T-cells [2] was found to be 319 nM.
